From article PMC5306062, “Pharmacology and toxicology of the novel investigational agent Cantrixil (TRX-E-002-1)” (Cancer Chemotherapy and Pharmacology, 2016)
Read-outs that look alike come from different tables or passages of the source.

Experiments:
[1] = test system: A549; test: Cytotoxic activity in human cancer cell lines (72 h growth inhibition); type: cell-based; details: Lung, 72 h incubation
Description: (§1) Activity in pancreatic and colorectal cancer cells and glioblastoma cells was more variable (Table 1).

[2] = test system: C4-2B; test: as above; type: cell-based; details: Prostate, 72 h incubation, mean ± SEM
Description: as §1

[3] = test system: LOVO; test: as above; type: cell-based; details: Colorectal, 72 h incubation, mean ± SEM
Description: as §1

[4] = test system: Panc-1; test: as above; type: cell-based; details: Pancreatic, 72 h incubation, mean ± SEM
Description: as §1

[5] = test system: chemo-resistant CD44+/MyD88+ OCSC clones; test: Cell death in ovarian cancer stem cell clones; type: cell-based, human; details: grown separately or in co-cultures
Description: Tumour recurrence post-chemotherapy is caused by the regrowth of the surviving innately drug-resistant cancer stem cells that remain in tumour niches during and post-chemotherapy. The expansion of this chemo-resistant cancer cell population, coupled with upregulation of pro-survival pathways due to drug pressure, is thought to be responsible for the development of chemo-resistant recurrent disease. Further, the inherent heterogeneity of ovarian tumours consists of epithelial cells with varying potential for stemness, and a population of cancer cells with varying mesenchymal status and invasiveness potential. Therefore, to improve survival, a practical approach is the use of novel therapies that can induce cell death in these various subtypes of ovarian cancer cells. TRX-E-002-1 was assessed against ovarian cancer stem cell line OCSC2, characterised by their expression of stem cell markers including CD44 and […] [22]. A major characteristic of these cells is that they are drug resistant, able to form self-renewing spheroids in non-adherent culture, and recreate disseminated drug-resistant ovarian tumours that have a high degree of heterogeneity similar to the clinical profile observed in patients when inoculated into the peritoneal cavity of an immune-compromised mouse.

[6] = test system: recurrent ovarian cancer model; test: Recurrent ovarian cancer model after paclitaxel (OCSC2-inoculated mice); type: in vivo
Procedure: In vivo, TRX-E-002-1, formulated in 20% SBECD, was active in a disseminated ovarian cancer model and a recurrent ovarian cancer model in which tumour recurrence is investigated following initial treatment of the OCSC2-inoculated mice with paclitaxel. In both models, TRX-E-002-1 inhibited tumour growth following once daily intraperitoneal administration.
In the recurrent ovarian cancer model, once daily intraperitoneal administration of 100 mg/kg TRX-E-002-1 in 20% SBECD for 4 weeks inhibited tumour growth and reduced terminal tumour burden by 77%.

[7] = test system: wild-type human ether-à-go-go-related gene (hERG); test: hERG trafficking, surface expression of wild-type hERG; type: cell-based
[8] = GLP telemetry cardiovascular study, intraperitoneal injection; type: in vivo, beagle dogs
Procedure: However, at concentrations of 0.1-10 μM, the drug increased surface expression of the hERG single mutant (hERG-SM), identifying it as a potential blocker of hERG channel activity. […] Potential cardiovascular responses to intraperitoneal injection of TRX-E-002-1 were investigated in a GLP-compliant telemetry study in beagle dogs. Four male dogs received vehicle (20% SBECD) or TRX-E-002-1 (1, 10 or 30 mg/kg) on four separate occasions in a Latin Square design. Blood pressure, heart rate, ECG parameters and body temperatures were continuously recorded from 30 min before dosing until at least 24 h after each dose.

[9] = test system: CYP1A2; test: CYP induction in human hepatocytes; type: in vitro ADME
Description: (§2) Potential induction of human drug-metabolizing cytochrome P450 enzymes by TRX-E-002-1 was also investigated in human hepatocytes in vitro (VPT3079/2015). No evidence of CYP1A2 induction was observed.

[10] = test system: CYP2B6; test: CYP induction in human hepatocytes; type: in vitro ADME; details: one of three donors
Description: as §2

[11] = test system: CYP3A4; test: CYP induction in human hepatocytes; type: in vitro ADME; details: one of three donors
Description: as §2

[12] = Rat pharmacokinetics after single intraperitoneal injection of 100 mg/kg; type: in vivo, Sprague–Dawley rats; details: for AUC(0-inf) / Tmax / half-life: Sprague-Dawley, rat, ip, plasma
Procedure: The pharmacokinetics of TRX-E-002-1 was evaluated in male female Sprague–Dawley rats following a single intraperitoneal injection of 100 mg/kg TRX-E-002-1 in 20% SBECD vehicle. Absorption was rapid, with C max mean plasma concentrations reached 0.25/1 h after dosing in female/male rats. […] Mean plasma levels decreased to below the limit of quantification by 24 h (not shown). The AUC0−∞ value was 29,537 and 44,702 ng h/mL in female and male rats, respectively (Table 2). High tissue levels were observed 0.5–6 h after dosing, with levels higher than the plasma concentration in pancreas, ovaries, large intestine, skin, kidneys, liver, stomach and adrenal glands (not shown). Treatment of plasma and tissue samples with glucuronidase indicated the presence of low levels of a glucuronide conjugate of TRX-E-002-1 (not shown). Other metabolic pathways have not yet been investigated. […] Parent drug was excreted in the urine and faeces, and high levels of the glucuronide metabolite were found in the faeces.
Tissue concentrations of total drug (parent + glucuronide) were also similar to those in plasma except in liver, where they were 2–3 times higher.

[13] = test system: micronucleated polychromatic erythrocytes (PCEs) in bone marrow; test: Bone marrow micronucleus test; type: in vivo, ARC(S) Swiss mice; details: for frequency of micronucleated PCEs: female mice
Procedure: The assays were performed in compliance with GLP regulations.
The bone marrow micronucleus test was the in vivo part of the ICH genotoxicity testing battery and was conducted in ARC(S) Swiss mice. Eight groups of mice (10/sex/group) were given an intraperitoneal injection of vehicle (20% w/v SBECD) or Cantrixil at 50, 200 or 400 mg/kg and were killed 24 or 48 h later. Dimethyl-1,2 benzanthracene was used as the positive control. After preparation of the bone marrow cells, the number of micronucleated polychromatic erythrocytes (PCEs) was determined in 4000 PCEs per animal, and the proportion of PCEs in the total erythrocyte population in bone marrow was calculated from the examination of at least 500 erythrocytes as an index of bone marrow toxicity. […] The proportion of PCEs in the total erythrocyte population was decreased in both sexes at the 200 and 400 mg/kg doses at both kill times. TRX-E-002-1 is therefore considered clastogenic in this system at the described concentrations in vivo [the equivalent 200/400 mg/kg dose in a […] is 16.2 mg/kg (600 mg/m^2)/32.4 mg/kg (1200 mg/m^2) in a 60-kg human].

[14] = 100 mg/kg i.p. once daily in 20% SBECD for 4 weeks

## COc1cc([C@@H]2COc3c(ccc(O)c3C)[C@@H]2c2ccc(O)cc2)cc(OC)c1O [TRX-E-002-1, (+) cis-4-(para-hydroxyphenyl)-7,4′-dihydroxy-3′,5′-dimethoxy-8-methylisoflavan]
[1]
  IC50: 58 nM
[2]
  IC50: 14 ± 9 nM
[3]
  IC50: 45 ± 5 nM
[3]; Homo sapiens, LoVo, 72 h
  IC50: 84 nM
[4]
  IC50: 467 ± 378 nM
[5]
  induction of cell death: able to induce cell death
[6]; [14]
  reduction of terminal tumour burden: 77%
  tumour growth: inhibited
[6]; paclitaxel 12 mg/kg twice weekly
  efficacy compared with paclitaxel: more effective
[7]
  surface expression of wild-type hERG: does not affect
[8]; 1, 10 or 30 mg/kg i.p., ECG telemetry
  effect on QTc interval: no effect
[8]; 10 and/or 30 mg/kg i.p., not considered adverse
  blood pressure and heart rate: slight, transient increases
[9]
  CYP1A2 induction: No evidence
[10]
  induction of CYP2B6: Equivocal evidence
[11]
  induction of CYP3A4: Equivocal evidence
[12]; 100 mg/kg i.p.
  time by which mean plasma levels were below the limit of quantification: ≤ 24 h
[12]; female rats, 100 mg/kg i.p.
  AUC(0-inf): 29500 ng·h/mL
  Tmax: 0.25 h
[12]; male rats, 100 mg/kg i.p.
  AUC(0-inf): 44700 ng·h/mL
  Tmax: 1 h
[12]; female rats, 100 mg/kg i.p., read-out: T ½ (plasma elimination half-life) (converted)
  half-life: ~1.3 h
[12]; male rats, 100 mg/kg i.p., read-out: plasma elimination half-life (converted)
  half-life: ~1.9 h
[12]; female rats, up to 6 h after dosing
  plasma unconjugated TRX-E-002-1 as share of total levels (parent + glucuronide): approximately 90%
[13]; at the described concentrations in vivo
  clastogenicity, overall conclusion: clastogenic
[13]; both sexes, 200 and 400 mg/kg, both kill times
  proportion of PCEs in the total erythrocyte population: decreased
[13]; 200 mg/kg i.p., 24 and 48 h
  frequency of micronucleated PCEs: significantly increased
[13]; 400 mg/kg i.p., 24 h
  frequency of micronucleated PCEs: significantly increased
[13]; male mice, 200 and 400 mg/kg i.p.
  slight increases in frequency of micronucleated PCEs: not statistically significant
